Measurements taken from patent publication US9078900B2 (priority 2008, dated 2015).

Details: at the end of the third month after implantation

Cc1nc2n(c(=O)c1CCN1CCC(c3noc4cc(F)ccc34)CC1)CCCC2 [Risperidone, risperidone]
presence of risperidone in the dog plasma: still present at a high level
